Ends that are not written are not given here.
Tests used:
intracranial U87 tumor = experiment: Anti-glioblastoma efficacy test of intracranial glioma (survival); format: in vivo, nude mice
Procedure: After the nude mice was anesthetized and fixed with stereotaxic apparatus, intracranial U87 tumor bearing model was established on nude mice by implanted with U87 cells (5×10^5 cells dispersed in 5 μL of PBS buffer for each mouse) in the logarithmic growth phase into the right striatum (0.6 mm in front of […], 1.8 mm in the lateral direction, and 3 mm in depth). The status of naked mice was observed regularly. […] The total dose of DOX was 10 mg/Kg except 2.5 mg/Kg for low dose and 5 mg/kg for medium dose. The ^DVAP dose was the amount of ^DVAP contained in the high dose of ^DVAP-DOX. The survival time of mice were recorded (FIG. 24).

[1] = Serum stability of VAP peptides in mouse serum; format: in vitro ADME; conditions: 50% mouse serum, 37° C., after 2 h incubation
Procedure: At 0 and 15 min, 0.5, 1, 2 and 4 h, 100 μL solution was taken out and 20 μL trichloroacetic acid (TCA) was added to precipitate protein of the serum, after standing for 20 min at 4° C., the solution was centrifuged at 12,000 rpm for 10 min. 20 μL supernatant was taken for HPLC analysis.

GRP78 protein [2] = molecular target: T1, GRP78 protein (Homo sapiens, UniProt P11021); experiment: Binding activity of VAP to GRP78 by surface plasmon resonance (Biacore); conditions: SPR, GRP78 coupled to CM5 chip
Procedure: Pre-binding analysis was performed by the biacore system, and pH 5.0 was selected as the optimal pH for GRP78 binding to the CMS chip. […] The samples were injected from low to high concentration.

GRP78 protein [3] = molecular target: T1, GRP78 protein; experiment: VAP mutual competition inhibition test on U87 cells (flow cytometry); format: cell-based; design: saturate the receptor protein on the cell surface; endogenous in cells; host or cells: U87 glioma cells; conditions: 4° C., unlabeled peptide before fluorescein-labeled peptide
Procedure: U87 cells were digested by trypsin and transferred to EP tubes, washed with PBS three times to remove trypsin, pretreated at 4° C. for 20 min. The prepared peptide solution (non-fluorescent label) was also placed at 4° C. for low temperature pretreatment, then the peptide solution was mixed with the cells and shocked for 2 h to saturate the receptor protein on the cell surface. Then the fluorescein-labeled peptide solution was added.

T1 sequence (P11021 19-654): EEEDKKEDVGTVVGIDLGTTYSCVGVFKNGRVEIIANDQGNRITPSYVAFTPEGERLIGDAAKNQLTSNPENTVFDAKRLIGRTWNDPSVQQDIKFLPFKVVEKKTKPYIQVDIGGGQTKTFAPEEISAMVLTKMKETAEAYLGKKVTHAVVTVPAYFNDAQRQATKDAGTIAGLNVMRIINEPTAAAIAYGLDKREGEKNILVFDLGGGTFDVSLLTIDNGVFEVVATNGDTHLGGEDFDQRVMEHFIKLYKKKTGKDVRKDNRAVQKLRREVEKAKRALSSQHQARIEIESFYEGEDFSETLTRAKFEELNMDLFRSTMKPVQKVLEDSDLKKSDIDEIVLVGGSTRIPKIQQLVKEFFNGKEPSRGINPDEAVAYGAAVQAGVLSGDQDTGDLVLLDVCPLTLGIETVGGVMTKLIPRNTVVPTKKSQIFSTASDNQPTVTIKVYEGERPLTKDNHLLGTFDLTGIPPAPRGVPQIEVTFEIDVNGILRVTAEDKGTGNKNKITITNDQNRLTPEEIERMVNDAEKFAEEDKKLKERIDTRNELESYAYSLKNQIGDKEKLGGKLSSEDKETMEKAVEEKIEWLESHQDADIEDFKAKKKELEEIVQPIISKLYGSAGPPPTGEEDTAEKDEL

Compound | mean survival time (intracranial U87 tumor; total dose of DOX 10 mg/Kg (high dose), tail vein, days 10, 13, 16, 19, 22) | AUC0-6h (FIGS. 25A-25B) | MRT0-6h (FIGS. 25A-25B) | T1/2 (FIGS. 25A-25B) | residual percentage of intact polypeptide (degradation) [1] | Kd value (dissociation) (GRP78 protein [2]) | mean survival time (intracranial U87 tumor; ^DVAP alone, amount contained in the high dose of ^DVAP-DOX) | competitive inhibition between VAP peptides (GRP78 protein [3]) | Kd (GRP78 protein [2])
COc1cccc2c1C(=O)c1c(O)c3c(c(O)c1C2=O)C[C@@](O)(C(=O)CO)C[C@@H]3O[C@H]1C[C@H](N)[C@H](O)[C@H](C)O1 [DOX, doxorubicin] | 36 days | 7976 ± 1515 ng·h/mL | 1.836 ± 0.695 h | 2.131 ± 0.646 h |  |  |  |  | 
CC(C)[C@@H](NC(=O)[C@@H](C)NC(=O)[C@H]1CCCN1)C(=O)N[C@H](CCCNC(=N)N)C(=O)N[C@@H](C(=O)N[C@H](CC(N)=O)C(=O)N[C@H](CO)C(=O)O)[C@H](C)O [^DVAP] |  |  |  |  | hardly degraded | 0.02091 s⁻¹ | 45.5 days | completely inhibit each other | 
CC(C)[C@@H](NC(=O)[C@@H](CCCNC(=N)N)NC(=O)[C@H](NC(=O)[C@@H](CC(N)=O)NC(=O)[C@H](N)CO)[C@H](C)O)C(=O)N[C@H](C)C(=O)N1CCC[C@@H]1C(=O)O [^SVAP] |  |  |  |  | hardly degraded | 0.02826 s⁻¹ |  | completely inhibit each other | 5.22 µM
SNTRVAP [^LVAP, reference compound] |  |  |  |  | completely degraded | 0.01898 s⁻¹ |  | completely inhibit each other | 
